The target in one data set is CYP3A4 (Homo sapiens, UniProt P08684). The experiment in a line: Inhibition of cytochrome P450 3A4 was determined at 2 uM.
In data set [1] the target is T1, CYP2D6 (Homo sapiens, UniProt P10635). In words: (§1) Inhibition of cytochrome P450 2D6 at 2 uM.
A further data set concerns the target Cytochrome P450 2D6 (Homo sapiens, UniProt P10635). In words: Predictive competitive inhibition of cytochrome P450 2D6 was determined in silico.
Data set [2] deals with T2, Sodium channel alpha subunits; brain (Types I, II, III) (Rattus norvegicus, UniProt P04775+P04774+P08104). The experiment in a line: In vitro inhibition of [3H]batrachotoxin binding to neurotoxin site 2 of sodium (Na+) channel in rat cerebral cortex membrane. The data set is classed as cell membranes.
The species entered for data set [3] is Rattus norvegicus. The experiment in a line: Inhibition of tetrodotoxin (TTX) resistant current by the compound was determined at 10 uM using whole-cell patch clamp tests in cultured rat dorsal root ganglion (DRG). The data set is classed as functional.
The species named for data set [4] is Rattus norvegicus. In words: Inhibition of tetrodotoxin (TTX) sensitive current by the compound was determined at 10 uM using whole-cell patch clamp tests in cultured rat dorsal root ganglion (DRG). Format: functional. For orientation: In patch-clamp work, channel activity is measured electrically.
The target in data set [5] is T2, Sodium channel alpha subunits; brain (Types I, II, III). The experiment in a line: Inhibitory concentration against [3H]batrachotoxin binding to neurotoxin site 2 of sodium (Na+) channel in vitro in rat cerebral cortex membrane at 1 uM. The data set is classed as cell membranes.
Data set [6] deals with T1, CYP2D6. The data set is described as §1. The data set is classed as ADME.

Chain of CYP3A4 (P08684 whole entry): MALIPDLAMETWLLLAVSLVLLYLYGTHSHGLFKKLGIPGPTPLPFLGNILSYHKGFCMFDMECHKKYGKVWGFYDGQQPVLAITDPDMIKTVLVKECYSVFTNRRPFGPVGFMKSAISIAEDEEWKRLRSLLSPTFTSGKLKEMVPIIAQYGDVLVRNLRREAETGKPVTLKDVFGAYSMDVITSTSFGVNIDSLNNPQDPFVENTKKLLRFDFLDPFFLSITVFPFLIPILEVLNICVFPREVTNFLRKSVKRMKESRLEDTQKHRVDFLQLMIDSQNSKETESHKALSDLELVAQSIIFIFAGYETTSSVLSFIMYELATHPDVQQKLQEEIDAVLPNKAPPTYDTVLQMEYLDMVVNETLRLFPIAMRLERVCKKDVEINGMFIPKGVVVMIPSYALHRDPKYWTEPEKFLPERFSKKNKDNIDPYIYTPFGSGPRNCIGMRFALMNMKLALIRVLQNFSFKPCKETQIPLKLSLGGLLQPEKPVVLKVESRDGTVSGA
Chain of Cytochrome P450 2D6 (P10635 whole entry): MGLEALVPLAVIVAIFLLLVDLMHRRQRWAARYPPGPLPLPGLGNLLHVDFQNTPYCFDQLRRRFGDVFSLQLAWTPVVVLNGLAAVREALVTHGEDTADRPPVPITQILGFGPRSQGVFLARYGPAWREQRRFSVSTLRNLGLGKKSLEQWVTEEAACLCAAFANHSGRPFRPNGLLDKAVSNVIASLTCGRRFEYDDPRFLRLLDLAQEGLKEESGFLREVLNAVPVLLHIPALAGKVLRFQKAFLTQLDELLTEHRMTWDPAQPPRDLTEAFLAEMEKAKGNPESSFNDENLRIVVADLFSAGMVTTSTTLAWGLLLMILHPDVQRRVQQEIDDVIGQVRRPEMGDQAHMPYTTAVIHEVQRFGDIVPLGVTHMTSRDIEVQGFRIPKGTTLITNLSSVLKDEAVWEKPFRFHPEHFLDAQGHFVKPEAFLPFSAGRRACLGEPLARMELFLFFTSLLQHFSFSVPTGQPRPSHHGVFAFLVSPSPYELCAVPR
T1 sequence (P10635 whole entry): as above

Turning to `O=C(NCC(c1ccccc1)N1CCN(CC(O)COc2ccccc2)CC1)c1ccc(F)cc1` (stereo unspecified), the figures for the inhibition at 2 µM on CYP3A4 and against CYP2D6 [1] were 61% and 9%, respectively. Further, the Ki at Cytochrome P450 2D6 was 7000 nM. The compound further came in with an IC50 in data set [2] of 363 nM.

For the compound `COc1ccc(CNC(=O)C(c2ccc(F)cc2)N2CCN(CC(O)COc3ccc(OC)cc3)CC2)cc1` (stereo unspecified), the inhibition at 2 µM at CYP3A4 is 81%; against CYP2D6 [1], 10%. The Ki on Cytochrome P450 2D6 was 7000 nM. Moreover, in data set [2], the IC50 was determined as 214 nM.

For the compound `COc1ccc(OC)c(S(=O)(=O)NCC(c2ccccc2)N2CCN(CC(O)COc3ccc(Br)cc3)CC2)c1` (stereo unspecified), the inhibition at 2 µM on CYP3A4 is 100%; against CYP2D6 [1], 25%. The Ki on Cytochrome P450 2D6 was 30000 nM. The 50% inhibitory concentration (IC50) in data set [2] was determined as 522 nM.

Turning to `COc1ccc(CNC(=O)C(c2ccc(C(F)(F)F)cc2)N2CCN(CC(O)COc3c(C)cccc3C)CC2)cc1` (stereo unspecified), the inhibition at 2 µM worked out at 62% at CYP3A4 and 8% against CYP2D6 [1]. For the same compound, the Ki on Cytochrome P450 2D6 was 2000 nM. The IC50 in data set [2] is on record as 355 nM.

On to `Cc1cccc(C)c1OCC(O)CN1CCN(C(C(=O)NCc2ccccc2)c2ccc(F)cc2)CC1` (stereo unspecified), for which the inhibition at 2 µM was 38% against CYP3A4 and 20% against CYP2D6 [1]. Moreover, at Cytochrome P450 2D6, the Ki is 2000 nM. In addition, in data set [2], the IC50 came out at 149 nM.

For the compound `COc1ccc(OCC(O)CN2CCN(C(CNC(=O)c3ccc(OC)cc3)c3ccccc3)CC2)cc1` (stereo unspecified), the inhibition at 2 µM is 95% at CYP3A4 and 12% at CYP2D6 [1]. At Cytochrome P450 2D6, the inhibition constant (Ki) was 8000 nM. Also, in data set [2], the IC50 is on record as 871 nM.

As to `COc1ccc(CNC(=O)C(c2ccc(C)cc2)N2CCN(CC(O)COc3c(C)cccc3C)CC2)cc1` (stereo unspecified), the inhibition at 2 µM is 74% at CYP3A4 and 14% against CYP2D6 [1]. Moreover, at Cytochrome P450 2D6, the inhibitory constant (Ki) is 3000 nM. In data set [2], this compound came in with an IC50 of 351 nM.

As for `Cc1ccc(C(C(=O)NCc2ccccc2)N2CCN(CC(O)COc3c(C)cccc3C)CC2)cc1` (stereo unspecified), the inhibition at 2 µM against CYP3A4 is 44%; against CYP2D6 [1] it was 26%. Further, the Ki on Cytochrome P450 2D6 is 2000 nM. The IC50 in data set [2] was found to be 325 nM.

On to `OC(COc1ccccc1)CN1CCN(C(c2ccccc2)c2ccc(C(F)(F)F)cc2)CC1` (stereo unspecified), for which the inhibition at 2 µM on CYP2D6 [1] was found to be 87%. In addition, at Cytochrome P450 2D6, the Ki was 600 nM. Also, the values for the Inhibition in the data set filed under Rattus norvegicus [3] and in the data set filed under Rattus norvegicus [4] were 57% and 61%, respectively. The compound also returned an IC50 in data set [2] of 893 nM.

Turning to `COc1ccc(OCC(O)CN2CCN(C(CNC(=O)c3ccccc3OC)c3ccccc3)CC2)cc1` (stereo unspecified), the inhibition at 2 µM on CYP3A4 was determined as 93%; against CYP2D6 [1] it was 9%. For the same compound, the Ki on Cytochrome P450 2D6 is 8000 nM. Further, in data set [2], the IC50 turned out to be 721 nM.

Regarding `COc1ccc(OCC(O)CN2CCN(C(C(=O)NCc3ccccc3)c3ccc(F)cc3)CC2)cc1` (stereo unspecified), the values for the inhibition at 2 µM against CYP3A4 and against CYP2D6 [1] were 49% and 0%, respectively. The Ki at Cytochrome P450 2D6 was 5000 nM. In addition, the IC50 in data set [2] amounted to 254 nM.

With `COc1ccc(CNC(=O)C(c2ccc(OC)cc2)N2CCN(CC(O)COc3c(C)cccc3C)CC2)cc1` (stereo unspecified), the inhibition at 2 µM on CYP3A4 amounted to 74%; against CYP2D6 [1], 9%. Moreover, at Cytochrome P450 2D6, the Ki is 5000 nM. The compound also showed an IC50 in data set [2] of 571 nM.

Turning to `COc1ccc(OCC(O)CN2CCN(C(CNC(=O)c3ccc(F)cc3)c3ccccc3)CC2)cc1` (stereo unspecified), the results for the inhibition at 2 µM at CYP3A4 and against CYP2D6 [1] were 22% and 33%, respectively. Besides, on Cytochrome P450 2D6, the Ki is 3000 nM. Besides, the IC50 in data set [2] is 531 nM.

On to `COc1ccc(OCC(O)CN2CCN(C(C(=O)NCc3ccccc3)c3ccc(C)cc3)CC2)cc1` (stereo unspecified), for which the inhibition at 2 µM stood at 65% on CYP3A4 and 10% on CYP2D6 [1]. At Cytochrome P450 2D6, the Ki was 4000 nM. This compound also registered a half-inhibitory concentration (IC50) in data set [2] of 579 nM.

As for `COc1ccc(CNC(=O)C(c2ccc(C(F)(F)F)cc2)N2CCN(CC(O)COc3ccc(OC)cc3)CC2)cc1` (stereo unspecified), the inhibition at 2 µM was found to be 88% against CYP3A4 and 0% at CYP2D6 [1]. Further, the Ki at Cytochrome P450 2D6 is 4000 nM. This compound returned an IC50 in data set [2] of 359 nM.

As for `COc1ccc(C(=O)NCC(c2ccccc2)N2CCN(CC(O)COc3ccc(Cl)cc3)CC2)cc1` (stereo unspecified), the results for the inhibition at 2 µM on CYP3A4 and at CYP2D6 [1] were 96% and 47%, respectively. At Cytochrome P450 2D6, the Ki is 4000 nM. The IC50 in data set [2] is given as 538 nM.

On to `COc1ccc(OCC(O)CN2CCN(C(C(=O)NCc3ccccc3)c3ccc(C(F)(F)F)cc3)CC2)cc1` (stereo unspecified), for which the results for the inhibition at 2 µM against CYP3A4 and at CYP2D6 [1] were 68% and 13%, respectively. For the same compound, the inhibitory constant (Ki) at Cytochrome P450 2D6 was 2000 nM. In data set [2], this compound returned an IC50 of 429 nM.

Regarding `Cc1cccc(S(=O)(=O)NCC(c2ccc(C(F)(F)F)cc2)N2CCN(CC(O)COc3ccc(Br)cc3)CC2)c1` (stereo unspecified), the inhibition at 2 µM came out at 76% at CYP3A4 and 27% against CYP2D6 [1]. The Ki on Cytochrome P450 2D6 is 10000 nM. This compound registered an IC50 in data set [5] of 95 nM.

Compound `C=CCOCC(O)CN1CCN(C(c2ccccc2)c2ccc(Cl)cc2)CC1` (stereo unspecified) showed an inhibition at 2 µM at CYP2D6 [6] of 87%. Besides, the Ki at Cytochrome P450 2D6 is 100 nM. In the data set filed under Rattus norvegicus [4], this compound gave an Inhibition of 20%. The compound further came in with an IC50 in data set [2] of 401 nM.

`O=S(=O)(NCC(c1ccc(C(F)(F)F)cc1)N1CCN(CC(O)COc2ccc(F)cc2)CC1)c1ccccc1Cl` (stereo unspecified): the inhibition at 2 µM was found to be 92% against CYP3A4 and 56% at CYP2D6 [1]. Also, the Ki on Cytochrome P450 2D6 is 10000 nM. Moreover, the IC50 in data set [5] turned out to be 76 nM.

Usually inhibition stands for how much of the control response was suppressed. A low value points to little suppression. For orientation: Ki means the equilibrium dissociation constant of an inhibitor or competing ligand from its target. One may read the IC50 as the midpoint of a concentration-inhibition curve. High values mean weaker potency in that assay, low ones greater potency in that assay. One may read the Inhibition as the percentage by which the read-out fell short of the control.

The values above are taken from ChEMBL document CHEMBL1147532, “The design, preparation and SAR of novel small molecule sodium (Na(+)) channel blockers” (Bioorg Med Chem Lett, 2004).
